Experimental data as given in ChEMBL document CHEMBL4765380, “Synthesis, structure and anticancer activity of new geldanamycin amine analogs containing C(17)- or C(20)- flexible and rigid arms as well as closed or open ansa-bridges” (Eur J Med Chem, 2020).

Legend:
[1] = Cytotoxicity against human HDF cells assessed as reduction in cell growth incubated for 72 hrs by SRB assay; format: cell-based; conditions: HDFa
[2] = Selectivity index, ratio of IC50 for cytotoxicity against human HDF cells to IC50 for cytotoxicity against human A549 cells; format: toxicity, cell-based; conditions: HDF cells versus A549 cells, read-out: Ratio IC50
[3] = test system: A549; experiment: Antiproliferative activity against human A549 cells assessed as reduction in cell growth incubated for 72 hrs by SRB assay; format: functional, cell-based; conditions: A549, 72 h
[4] = test system: SK-BR-3; experiment: Antiproliferative activity against human SK-BR-3 cells assessed as reduction in cell growth incubated for 72 hrs by SRB assay; format: functional, cell-based; conditions: SK-BR-3, 72 h
[5] = Binding affinity to HSP90 (unknown origin) assessed as dissociation constant by isothermal titration calorimetry; set-up: species or system Homo sapiens
[6] = test system: SK-OV-3; experiment: Antiproliferative activity against human SK-OV-3 cells assessed as reduction in cell growth incubated for 72 hrs by SRB assay; format: functional, cell-based; conditions: SK-OV-3, 72 h
[7] = Selectivity index, ratio of IC50 for cytotoxicity against human HDF cells to IC50 for cytotoxicity against human U-87 MG cells; format: toxicity, cell-based; conditions: HDF cells versus U-87 MG cells, read-out: Ratio IC50
[8] = test system: PC-3; experiment: Antiproliferative activity against human PC-3 cells assessed as reduction in cell growth incubated for 72 hrs by SRB assay; format: functional, cell-based; conditions: PC-3, 72 h
[9] = Selectivity index, ratio of IC50 for cytotoxicity against human HDF cells to IC50 for cytotoxicity against human PC-3 cells; format: toxicity, cell-based; conditions: HDF cells versus PC-3 cells, read-out: Ratio IC50
[10] = test system: U-87 MG; experiment: Antiproliferative activity against human U-87 MG cells assessed as reduction in cell growth incubated for 72 hrs by SRB assay; format: functional, cell-based, U-87MG ATCC
[11] = Selectivity index, ratio of IC50 for cytotoxicity against human HDF cells to IC50 for cytotoxicity against human SK-BR-3 cells; format: toxicity, cell-based; conditions: HDF cells versus SK-BR-3 cells, read-out: Ratio IC50
[12] = Selectivity index, ratio of IC50 for cytotoxicity against human HDF cells to IC50 for cytotoxicity against human SK-OV-3 cells
[13] = Octanol/water partition coefficient, logP of compound incubated for 1 hr by UV-visible spectrophotometry; format: physicochemical
[14] = Binding affinity to HSP90 (unknown origin); set-up: species or system Homo sapiens

| SMILES | IC50 [3] | IC50 [4] | Kd [5] | IC50 [6] | IC50 [8] | IC50 [10] | logP at 1 h [13] | Kd [14] | IC50 [1] | selectivity ratio [2] | selectivity ratio [7] | selectivity ratio [9] | selectivity ratio [11] | Ratio IC50 [12] |
| --- | --- | --- | --- | --- | --- | --- | --- | --- | --- | --- | --- | --- | --- | --- |
| CO[C@@H](C=CC=C(C)C(N)=O)[C@@H](OC(N)=O)/C(C)=C/[C@H](C)[C@@H](O)[C@H](C[C@H](C)CC1=C(NCCO)C(=O)C=C(NCCO)C1=O)OC | 2380 nM | 2080 nM | 134000 nM | 2660 nM | 2130 nM | 2040 nM |  |  | 4840 nM | 2.03 | 3.42 | 2.72 | 2.33 | 1.82 |
| CO[C@H]1/C=C\C=C(/C)C(=O)NC2=CC(=O)C(NCC3CCC(C(=O)O)CC3)=C(C[C@@H](C)C[C@H](OC)[C@H](O)[C@@H](C)/C=C(\C)[C@@H]1OC(N)=O)C2=O (stereo partly specified) | 2910 nM | 2610 nM | 940 nM | 2790 nM | 2360 nM | 2810 nM |  |  | 7370 nM | 2.53 | 2.52 | 3.12 | 2.82 | 2.64 |
| C#CCCN1CCC(NC2=C3C[C@@H](C)C[C@H](OC)[C@H](O)[C@@H](C)/C=C(\C)[C@H](OC(N)=O)[C@@H](OC)/C=C\C=C(/C)C(=O)NC(=CC2=O)C3=O)CC1 | 4370 nM | 4710 nM | 2960 nM | 4730 nM | 4090 nM | 4860 nM |  |  | 11700 nM | 2.69 | 2.42 | 2.87 | 2.49 | 2.48 |
| CO[C@H]1/C=C\C=C(/C)C(=O)NC2=CC(=O)C(NC3CCC(O)CC3)=C(C[C@@H](C)C[C@H](OC)[C@H](O)[C@@H](C)/C=C(\C)[C@@H]1OC(N)=O)C2=O (stereo partly specified) | 3310 nM | 3830 nM |  | 3160 nM | 3290 nM | 3710 nM |  |  | 8190 nM | 2.47 | 2.21 | 2.49 | 2.14 | 2.59 |
| C=CCNC1=C2C[C@@H](C)C[C@H](OC)[C@H](O)[C@@H](C)/C=C(\C)[C@H](OC(N)=O)[C@@H](OC)/C=C\C=C(/C)C(=O)NC(=CC1=O)C2=O [TANESPIMYCIN] | > 10000 nM | 38 nM |  | 220 nM | 62 nM | > 10000 nM |  | 2480 nM | 1200 nM | 52 | 51 |  | 49 |  |
| CO[C@H]1/C=C\C=C(/C)C(=O)NC2=CC(=O)C(NCc3cccc(N4CCOC4=O)c3)=C(C[C@@H](C)C[C@H](OC)[C@H](O)[C@@H](C)/C=C(\C)[C@@H]1OC(N)=O)C2=O | 3730 nM | 3390 nM |  | 3030 nM | 3210 nM | 3180 nM |  |  | 11300 nM | 3.02 | 3.55 | 3.51 | 3.13 | 3.72 |
| CO[C@H]1/C=C\C=C(/C)C(=O)NC2=CC(=O)C(NCCN3CCCC3=O)=C(C[C@@H](C)C[C@H](OC)[C@H](O)[C@@H](C)/C=C(\C)[C@@H]1OC(N)=O)C2=O | 1600 nM | 2050 nM |  | 1540 nM | 1830 nM | 1770 nM |  |  | 2880 nM | 1.8 | 1.63 | 1.57 | 1.4 | 1.87 |
| CO[C@H]1/C=C\C=C(/C)C(=O)NC2=CC(=O)C(NCCCN3CCCC3)=C(C[C@@H](C)C[C@H](OC)[C@H](O)[C@@H](C)/C=C(\C)[C@@H]1OC(N)=O)C2=O | 2610 nM | 2060 nM |  | 2820 nM | 2730 nM | 2040 nM |  |  | 7380 nM | 2.83 | 3.62 | 2.7 | 3.58 | 2.62 |
| CO[C@@H](C=CC=C(C)C(N)=O)[C@@H](OC(N)=O)/C(C)=C/[C@H](C)[C@@H](O)[C@H](C[C@H](C)CC1=C(NCCCCCCO)C(=O)C=C(NCCCCCCO)C1=O)OC | 11000 nM |  | 183000 nM | 11900 nM | 11700 nM | 11400 nM |  |  |  | 1.57 | 1.52 | 1.48 |  | 1.47 |

Further compounds by falling IC50 [3], results first:

| IC50 [3] | IC50 [4] | Kd [5] | IC50 [6] | IC50 [8] | IC50 [10] | logP at 1 h [13] | Kd [14] | SMILES | IC50 [1] | selectivity ratio [2] | selectivity ratio [7] | selectivity ratio [9] | selectivity ratio [11] | Ratio IC50 [12] |
| --- | --- | --- | --- | --- | --- | --- | --- | --- | --- | --- | --- | --- | --- | --- |
| 2150 nM | 2050 nM |  | 2510 nM | 1960 nM | 2660 nM |  |  | CO[C@H]1/C=C\C=C(/C)C(=O)NC2=CC(=O)C(NCCOCCO)=C(C[C@@H](C)C[C@H](OC)[C@H](O)[C@@H](C)/C=C(\C)[C@@H]1OC(N)=O)C2=O | 4990 nM | 2.32 | 1.88 | 2.55 | 2.43 | 1.99 |
| 1630 nM | 1630 nM |  | 1590 nM | 1660 nM | 1600 nM |  |  | CO[C@H]1/C=C\C=C(/C)C(=O)NC2=CC(=O)C(NCCCCO)=C(C[C@@H](C)C[C@H](OC)[C@H](O)[C@@H](C)/C=C(\C)[C@@H]1OC(N)=O)C2=O | 3510 nM | 2.15 | 2.19 | 2.11 | 2.15 | 2.21 |
| 1390 nM | 1370 nM |  | 1090 nM | 1260 nM | 1050 nM |  |  | CCOC(=O)[C@@H](N)CCCCNC1=C2C[C@@H](C)C[C@H](OC)[C@H](O)[C@@H](C)/C=C(\C)[C@H](OC(N)=O)[C@@H](OC)/C=C\C=C(/C)C(=O)NC(=CC1=O)C2=O | 3190 nM | 2.29 | 3.04 | 2.53 | 2.33 | 2.93 |
| 1190 nM | 1020 nM |  | 1660 nM | 1480 nM | 1220 nM |  |  | CCCCOCCOCCNC1=C2C[C@@H](C)C[C@H](OC)[C@H](O)[C@@H](C)/C=C(\C)[C@H](OC(N)=O)[C@@H](OC)/C=C\C=C(/C)C(=O)NC(=CC1=O)C2=O | 2640 nM | 2.22 | 2.16 | 1.78 | 2.59 | 1.59 |
| 1130 nM | 1580 nM | 890 nM |  | 1150 nM | 1090 nM | 2.39 |  | CCOC(=O)N1CCC(NC2=C3C[C@@H](C)C[C@H](OC)[C@H](O)[C@@H](C)/C=C(\C)[C@H](OC(N)=O)[C@@H](OC)/C=C\C=C(/C)C(=O)NC(=CC2=O)C3=O)CC1 | 5390 nM | 4.77 | 4.94 | 4.69 | 3.41 | 3.96 |
| 1090 nM | 710 nM | 1190 nM | 660 nM | 600 nM | 840 nM |  |  | CO[C@H]1/C=C\C=C(/C)C(=O)NC2=CC(=O)C(NCC3COCCOCCOCCOCCOCCO3)=C(C[C@@H](C)C[C@H](OC)[C@H](O)[C@@H](C)/C=C(\C)[C@@H]1OC(N)=O)C2=O (stereo partly specified) | 4070 nM | 3.73 | 4.85 | 6.78 | 5.73 | 6.17 |
| 910 nM | 930 nM | 1370 nM | 740 nM | 810 nM | 790 nM | 2.02 |  | COCCOCCOCCNC1=C2C[C@@H](C)C[C@H](OC)[C@H](O)[C@@H](C)/C=C(\C)[C@H](OC(N)=O)[C@@H](OC)/C=C\C=C(/C)C(=O)NC(=CC1=O)C2=O | 2770 nM | 3.04 | 3.51 | 3.42 | 2.98 | 3.74 |
| 590 nM | 590 nM | 900 nM | 550 nM | 570 nM | 620 nM | 2.9 |  | CCOC(=O)C1CCC(CNC2=C3C[C@@H](C)C[C@H](OC)[C@H](O)[C@@H](C)/C=C(\C)[C@H](OC(N)=O)[C@@H](OC)/C=C\C=C(/C)C(=O)NC(=CC2=O)C3=O)CC1 (stereo partly specified) | 2150 nM | 3.64 | 3.47 | 3.21 | 3.64 | 3.91 |
| 77 nM | 77 nM | 820 nM | 83 nM | 190 nM | 84 nM | 3.11 |  | CO[C@H]1/C=C\C=C(/C)C(=O)NC2=CC(=O)C(NC3CCN(C(=O)OC(C)(C)C)CC3)=C(C[C@@H](C)C[C@H](OC)[C@H](O)[C@@H](C)/C=C(\C)[C@@H]1OC(N)=O)C2=O | 2550 nM | 33.1 | 30.4 | 13.4 | 33.1 | 30.7 |
